Measurements: PubChem BioAssay AID1645866 (Buhrlage Lab, Dana-Farber Cancer Institute and Novartis …, 2021)
Activity calls are given as the source filed them.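 How the source made its calls: active means in confirmatory dose-response testing, peak deubiquitinase inhibition of 30% or more; inactive means the rest.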

What follows are compounds tested against Ubiquitin carboxyl-terminal hydrolase 28 (Homo sapiens) (UniProt Q96RU2) (assay: Concentration-response biochemical assay confirming initial hits as inhibitors of ubiquitin-specific protease 28 (AID 1645866)). Conditions: purified USP28, ubiquitin-rhodamine fluorescence, 30 min.
Chain of Ubiquitin carboxyl-terminal hydrolase 28 (Homo sapiens) (Q96RU2 whole entry, looked up): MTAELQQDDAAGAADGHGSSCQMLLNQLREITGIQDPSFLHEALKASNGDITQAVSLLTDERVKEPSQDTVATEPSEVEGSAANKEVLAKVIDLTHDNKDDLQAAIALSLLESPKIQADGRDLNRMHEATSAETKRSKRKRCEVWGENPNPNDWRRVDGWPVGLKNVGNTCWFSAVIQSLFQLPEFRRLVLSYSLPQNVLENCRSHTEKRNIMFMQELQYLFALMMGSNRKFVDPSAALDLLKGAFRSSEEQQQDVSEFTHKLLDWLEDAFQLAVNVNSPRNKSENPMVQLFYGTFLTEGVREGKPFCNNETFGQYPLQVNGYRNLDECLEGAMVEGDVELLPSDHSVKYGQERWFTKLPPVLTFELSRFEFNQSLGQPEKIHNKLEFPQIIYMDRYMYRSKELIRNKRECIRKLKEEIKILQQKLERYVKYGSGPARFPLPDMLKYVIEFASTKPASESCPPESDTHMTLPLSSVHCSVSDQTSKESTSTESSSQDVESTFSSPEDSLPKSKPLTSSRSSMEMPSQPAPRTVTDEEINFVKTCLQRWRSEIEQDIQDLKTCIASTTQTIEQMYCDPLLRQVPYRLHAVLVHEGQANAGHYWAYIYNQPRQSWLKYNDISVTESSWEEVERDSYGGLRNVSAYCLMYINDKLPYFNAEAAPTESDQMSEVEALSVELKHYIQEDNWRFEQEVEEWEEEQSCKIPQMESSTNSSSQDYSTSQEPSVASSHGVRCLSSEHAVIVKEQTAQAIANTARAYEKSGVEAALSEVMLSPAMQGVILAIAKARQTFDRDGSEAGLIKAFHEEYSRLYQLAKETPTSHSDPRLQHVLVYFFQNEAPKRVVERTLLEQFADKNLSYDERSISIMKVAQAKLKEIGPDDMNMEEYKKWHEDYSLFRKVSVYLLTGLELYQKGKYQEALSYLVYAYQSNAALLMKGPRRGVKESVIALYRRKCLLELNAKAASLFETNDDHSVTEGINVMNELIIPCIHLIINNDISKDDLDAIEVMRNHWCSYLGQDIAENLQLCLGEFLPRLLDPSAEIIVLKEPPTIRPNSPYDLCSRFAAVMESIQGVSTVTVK
In the case of `CC(=O)c1sc(NC(=O)/C=C/c2ccccc2)nc1-c1ccccc1`, the IC50 is reported as 18.7 µM.
Compound `O=C1N(Cc2cccc(Cl)c2)CCN1c1ccc2c(c1)CCC2` has an IC50 of 18.2 µM.
`O=C(COC(=O)c1ccc(CN2CCCC2=O)cc1)c1ccc2c(c1)OCCO2` gave an IC50 of 0.113 µM.
With `CSc1nc(Cc2ccc(Cl)cc2)nc2ccccc12` the IC50 was 14 µM.
Work on `O=C(Cc1cccc2ccccc12)Nc1nc2ccc(F)cc2s1` yielded an IC50 of 36.9 µM.
`CC(=O)Nc1cc2cc(-n3cccc3)ccc2oc1=O` showed an IC50 of 24.9 µM.
`CC(C)(C)c1ccc(Cn2nnc3c(=O)[nH]c(C4CCN(S(=O)(=O)c5ccc(S(=O)(=O)NC6CC6)cc5)CC4)nc32)cc1` showed an IC50 of 30.9 µM.
`Cc1ccc2[nH]c3c(=O)n(CC4CCCO4)cnc3c2c1` (stereo unspecified) showed an IC50 of 18 µM.
For `O=S(=O)(c1ccccc1)N1CCN2Cc3ccccc3N(Cc3ccccc3)CC2C1` (stereo unspecified), the IC50 was > 50 µM (inactive).
For `COc1ccc(Cn2cnc3c([nH]c4ccc(Br)cc43)c2=O)cc1`, the IC50 was 1.72 µM.
`O=C(Nc1ccccc1)c1nc(-c2cn(Cc3ccc(F)cc3)nn2)no1` showed an IC50 of 21 µM.
With `O=C(COC(=O)C1CCCN1C(=O)C12CC3CC(CC(C3)C1)C2)c1ccc(Cl)cc1` (stereo unspecified) the IC50 was > 50 µM (inactive).
Compound `O=c1[nH]c(C2CCN(S(=O)(=O)c3ccc(S(=O)(=O)NC4CCCCC4)cc3)CC2)nc2c1nnn2Cc1c(F)cccc1Cl` has an IC50 of 17 µM.
In the case of `Cc1nn(Cc2ccccc2)c2sc(C(=O)Nc3nc4ccccc4[nH]3)cc12`, the IC50 is reported as 20.8 µM.
With `CCN(CCCNC(=O)c1ccc(Cn2c(=O)[nH]c3ccccc3c2=O)cc1)c1ccccc1` the IC50 was 13.6 µM.
For `O=C(CC1C(=O)Nc2nc(-c3ccccc3)nn21)Nc1cccc2ccccc12` (stereo unspecified), the IC50 was 15 µM.
`CC(=O)Nc1ccc(S(=O)(=O)NCc2ccc(C(=O)NCc3ccc(C)cc3)cc2)cc1` was tested, and the IC50 was 19.2 µM.
For `CC1=C(C(=O)Nc2ccccc2C)C(c2ccc(OCc3ccccc3F)cc2)n2ncnc2N1` (stereo unspecified), the IC50 was 21.6 µM.
Compound `COc1ccc2ncc3c(-c4ccc(C)cc4)nn(-c4ccc(F)cc4)c3c2c1` has an IC50 of 2.11 µM.
For `O=C(CSc1nc2cc(S(=O)(=O)Nc3ccccc3Cl)ccc2o1)Nc1ccc(N2CCOCC2)cc1`, the IC50 was 34.5 µM.
`COc1ccc(-c2cc(-c3ccccc3)nc(SCC(N)=O)c2C#N)cc1OC` was tested, and the IC50 was 1.97 µM.
For `CC1Oc2ccccc2C(=O)N(Cc2ccc([N+](=O)[O-])cc2)C1=O` (stereo unspecified), the IC50 was 12.5 µM.
`C=C(NC(=O)C(=C)NC(=O)c1csc(-c2ccc3c(n2)-c2csc(n2)-c2csc(n2)C(C(C)C2CO2)NC(=O)C(Cc2ccc(O)cc2)NC(=O)c2csc(n2)C(C(O)c2ccccc2)NC(=O)c2nc(sc2C)C(CC(N)=O)NC(=O)c2csc-3n2)n1)C(=O)O` (stereo unspecified) gave an IC50 of 24.9 µM.
Compound `COc1cccc(Cn2nc3n(CC(C)C)c(=O)c4ccc(C(=O)NCC(C)C)cc4n3c2=O)c1` has an IC50 of 6.72 µM.
With `O=C1CC(C(=O)Nc2ccc(F)cc2)n2nc(SCc3ccccc3)nc2N1` (stereo unspecified) the IC50 was 29.3 µM.
For `Cc1ccc2oc(=O)c(S(=O)(=O)N3CCCCC3)cc2c1`, the IC50 was 23.2 µM.
For `N#Cc1ccc(COC(=O)c2ccc3ccccc3n2)cc1`, the IC50 was 3.62 µM.
`COc1ccc(NC(=O)CN2C(=O)c3ccccc3Sc3ccc(C(=O)N4CCCC4)cc32)c(OC)c1` was tested, and the IC50 was 18.9 µM.
For `COc1ccc(N(CC(=O)Nc2cccc(F)c2)S(=O)(=O)c2ccc(OC)c(OC)c2)cc1`, the IC50 was 18.9 µM.
`Cc1cc(C(F)(F)F)n2nc(C3CCN(C(=O)c4cnn(C)c4C)C3)cc2n1` (stereo unspecified) was tested, and the IC50 was > 50 µM (inactive).
`COc1cc(NC(=O)Cc2ccccc2)ccc1NC(=O)c1cc2ccccc2o1` gave an IC50 of 3.01 µM.
Work on `COc1ccccc1-c1nc(Cn2nnc(C(=O)Nc3cc(C)cc(C)c3)c2N)c(C)o1` yielded an IC50 of 37.4 µM.
With `Cc1cccc(C)c1NC(=O)Cn1c(=O)n(CCCCC(=O)NCc2ccc3c(c2)OCO3)c(=O)c2ccccc21` the IC50 was 1.88 µM.
`COc1ccc(NC(=O)C2[C@@H]3C(=O)N(C4CCCCC4)C(=O)[C@@H]3[C@H]3c4ccccc4C=CN23)cc1` (stereo partly specified) showed an IC50 of 36.9 µM.
Work on `Cc1ccc2c(c1)N(C)C(=O)c1cc(NC(=O)c3ccc(F)cc3)ccc1O2` yielded an IC50 of 4.21 µM.
Compound `O=C(CN1C(=O)C2CCCC2=Nc2ccccc21)Nc1cc(F)ccc1F` (stereo unspecified) has an IC50 of 13.5 µM.
`Cc1ccnc(NC(=O)c2ccn(COc3ccc(Cl)cc3)n2)c1` showed an IC50 of 21.9 µM.
With `COc1ccc(-c2nc(Cn3nnc(C(=O)Nc4ccc(C)cc4C)c3N)c(C)o2)cc1` the IC50 was 42.9 µM.
With `O=C(Nc1oc2ccccc2c(=O)c1-c1ccc2c(c1)OCO2)C1CCCCC1` the IC50 was 33.1 µM.
With `COc1ccc(NC(=O)Nc2cccc(-c3nnc(-c4ccccc4)o3)c2)cc1OC` the IC50 was 21.7 µM.
`O=C1N[C@@H](Cc2ccccc2)C(=O)N2[C@H]3Nc4ccccc4[C@@]3([C@]34C[C@H]5C(=O)N[C@@H](Cc6ccccc6)C(=O)N5[C@H]3Nc3ccccc34)C[C@@H]12` showed an IC50 of 29.4 µM.
For `CCCCN(C)C(=O)c1cc2c(=O)n3cccc(C)c3nc2n1Cc1ccccc1`, the IC50 was > 50 µM (inactive).
Work on `N#Cc1ccc(Cn2nnc(-c3cccc(Cl)c3)n2)cc1` yielded an IC50 of 8.66 µM.
Work on `O=S(=O)(c1cccc(F)c1)N1CCc2nc3ccccc3n2CC1` yielded an IC50 of 10.8 µM.
In the case of `Cc1cccc(-n2cnc(C(=O)NCc3ccc(F)cc3)c2)n1`, the IC50 is reported as 35.6 µM.
Compound `CC(C)c1nc2sc3c(NCc4ccco4)ncnc3c2c2c1CCC2` has an IC50 of 3.08 µM.
In the case of `O=C(Nc1cc(F)c2nc(N3CCOCC3)ccc2c1)C1CC1`, the IC50 is reported as 44.2 µM.
`COc1ccc(-c2cc(C(F)F)n3ncc(C(=O)Nc4ccc5c(c4)OCCO5)c3n2)cc1` was tested, and the IC50 was > 50 µM (inactive).
In the case of `O=C(Nc1ccc(F)cc1F)c1csc(-c2ccccc2)n1`, the IC50 is reported as 24.4 µM.
In the case of `Cc1cc(C(=O)CSc2nc3ccccc3[nH]2)c(C)n1Cc1ccco1`, the IC50 is reported as 36.2 µM.
In the case of `O=C(NCCCN1CCc2ccccc2C1)c1cc2c(s1)CS(=O)(=O)C2`, the IC50 is reported as > 50 µM (inactive).
`CCCCn1c(=O)c(CCC(=O)OCC(=O)Nc2ccc3c(c2)OCCO3)nc2ccccc21` showed an IC50 of 3.65 µM.
In the case of `COc1ccc(NC(=O)c2nc3n(n2)-c2ccccc2S(=O)(=O)N3)cn1`, the IC50 is reported as > 50 µM (inactive).
`c1ccc(Cc2nn3c(-c4cccnc4)nnc3c3ccccc23)cc1` was tested, and the IC50 was 2.53 µM.
In the case of `Cc1ccc(-n2c(-c3ccccc3)cn3c4c(=O)[nH]c(=O)n(C)c4nc23)cc1Cl`, the IC50 is reported as 0.305 µM.
For `COc1cnc(CSc2ncccn2)cc1OCC(=O)Nc1cc(C)ccc1C`, the IC50 was > 50 µM (inactive).
In the case of `COc1cc(OC)c(NC(=O)Cn2c(=O)n(Cc3ccccc3Cl)c(=O)c3cc(OC)c(OC)cc32)cc1Cl`, the IC50 is reported as 3.28 µM.
With `CCc1ccccc1NC(=O)c1cc(-c2ccccn2)n[nH]1` the IC50 was 46.1 µM.
`COc1ccc(NC(=O)CSc2nc(N)c3c4c(sc3n2)COC(C)(C)C4)cc1` gave an IC50 of 45.9 µM.
`Cc1nn(-c2cccc(F)c2)c2c1C(C(=O)c1ccc(Cl)s1)CC(=O)N2` (stereo unspecified) gave an IC50 of 48.6 µM.
With `COc1cccc(-n2ccc(=O)c(-c3nc(-c4ccccc4Cl)no3)n2)c1` the IC50 was 27.4 µM.
With `Cc1ccc(C)c(-n2c(C)cc(/C=C3/C(=N)N4C(c5ccc(F)cc5)=CSC4=NC3=O)c2C)c1` the IC50 was > 50 µM (inactive).
Work on `O=C(COC(=O)c1cc(Cl)c2c(c1)OCO2)Nc1ccc2[nH]c(=O)[nH]c2c1` yielded an IC50 of 2.92 µM.
With `O=C(Nc1nc2c(s1)COCC2)c1cc(-c2ccco2)[nH]n1` the IC50 was > 50 µM (inactive).
With `Cc1ccc(NC(=O)Cc2nnc3c(-c4nc(C5CC5)no4)cccn23)cc1` the IC50 was 3.53 µM.
In the case of `Cc1csc2ncc(C(=O)N3CCN(c4ccccc4F)CC3)c(=O)n12`, the IC50 is reported as > 50 µM (inactive).
Compound `O=[N+]([O-])c1ccccc1C(c1c[nH]c2ccccc12)c1c[nH]c2ccccc12` has an IC50 of 23.8 µM.
`COc1ccc(O)c(C(=O)OCc2cc(=O)oc3ccc4ccccc4c23)c1` was tested, and the IC50 was > 50 µM (inactive).
In the case of `O=[N+]([O-])c1ccc(NCC2COc3ccccc3O2)c(Cl)c1` (stereo unspecified), the IC50 is reported as 3.75 µM.
`COc1ccc(OC)c(CCNC(=O)CCC2=NS(=O)(=O)c3ccc(C(F)(F)F)cc3N2)c1` was tested, and the IC50 was 23.6 µM.
With `Cc1ccc(C)c(Nc2cc(C)nc3nc(-c4ccco4)nn23)c1` the IC50 was > 50 µM (inactive).
Work on `Cc1ccccc1NC(=O)c1nc(-c2cn(Cc3ccc(F)cc3)nn2)no1` yielded an IC50 of 5.88 µM.
With `CC(=O)N1CCc2cc(S(=O)(=O)NCCC(=O)Nc3cccc(C)c3C)ccc21` the IC50 was 34 µM.
For `O=C(NCc1ccccc1Cl)c1ccc(-c2nnc(-c3ccccc3)o2)cc1`, the IC50 was 2.13 µM.
With `Cc1c(C)c2ccc(OCC(=O)NCc3ccncc3)c(C)c2oc1=O` the IC50 was 49.2 µM.
Work on `C/C1=C\CCC(C)C(O)CC(O)C(C)C(O)CCC(C)C(O)CC2(O)OC(CC(OC(=O)CC(=O)O)CC(O)CC(O)CC(O)C(C)C(O)/C=C/C(C)C(C(C)CCCCCCCCN=C(N)N)OC1=O)CC(O)C2O` (stereo unspecified) yielded an IC50 of 4.77 µM.
Work on `Cc1ccc(NC(=O)c2nnn(-c3ccccc3Br)c2C)cc1C` yielded an IC50 of 1.53 µM.
In the case of `COc1ccc2cc3c(nc2c1)OC(=O)N(CCc1cccc(F)c1)C3`, the IC50 is reported as 0.233 µM.
For `COc1ccc(C(=O)N2CCCC3(C2)Nc2cccnc2NC3=NC2CCCC2)cn1` (stereo unspecified), the IC50 was > 50 µM (inactive).
In the case of `COc1ccc(Nc2nc3c(S(=O)(=O)c4ccc(C)cc4)nnn3c3ccsc23)c(OC)c1`, the IC50 is reported as 2.01 µM.
`C[C@@H]1O[C@@H](O[C@H]2[C@H](O[C@H]3[C@H](O[C@H]4CC[C@@]5(C)[C@@H](CC[C@]6(C)[C@@H]5CC=C5[C@@H]7CC(C)(C)CC(=O)[C@]7(C)CC[C@]56C)[C@@]4(C)CO)O[C@H](C(=O)O)[C@@H](O)[C@@H]3O)OC[C@@H](O)[C@@H]2O)[C@H](O)[C@H](O)[C@H]1O` was tested, and the IC50 was 48.4 µM.
`O=C(Cc1c[nH]c2ccccc12)Nc1nc2ccccc2s1` gave an IC50 of 21.2 µM.
In the case of `CSc1cccc(C(=O)Nc2ccc(-c3nc4ccccc4[nH]3)cc2)c1`, the IC50 is reported as 5.8 µM.
`Fc1cnc(N2CC[C@H]3CO[C@H](CNc4ncccn4)[C@H]3C2)nc1` was tested, and the IC50 was > 50 µM (inactive).
In the case of `O=S(=O)(O)c1cc2cc3ccccc3cc2[nH]1`, the IC50 is reported as > 50 µM (inactive).
For `O=C(COC(=O)c1ccc(Cl)cc1)Nc1ccc2[nH]c(=O)[nH]c2c1`, the IC50 was 9.08 µM.
With `O=C(Nc1ccc2c(c1)OCCO2)c1cccc2nc3ccccc3nc12` the IC50 was 1.99 µM.
`O=C(c1ccc2ncccc2c1)N1CCC2(C1)Nc1cccnc1NC2=NC1CCCC1` (stereo unspecified) was tested, and the IC50 was > 50 µM (inactive).
Compound `COc1cccc2c1NC(=O)C21CCN(C(=O)Nc2cccc(C)c2)CC1` has an IC50 of 14.6 µM.
With `CC(=O)c1ccccc1NC(=O)COc1ccc(-c2ccc(C#N)cc2)cc1` the IC50 was 4.72 µM.
In the case of `N#Cc1ccc(NC(=O)COC(=O)c2ccc3ccccc3n2)cc1`, the IC50 is reported as > 50 µM (inactive).
In the case of `COc1ccc(C2CC(c3ccc(C)cc3)N(C(=O)C3CC3)c3ncnn32)cc1` (stereo unspecified), the IC50 is reported as > 50 µM (inactive).
Compound `O=C(NCc1cccc(NC(=O)C2CC2)c1)Nc1cccc2ccccc12` has an IC50 of 20.5 µM.
With `Cc1sc2ncn3c(=O)n(CC(=O)Nc4ccc(F)c(Cl)c4)nc3c2c1C` the IC50 was 3.14 µM.
With `O=C(Nc1ccc(-c2nnc3n2CCCCC3)cc1)c1ccc2c(c1)OCO2` the IC50 was 7.43 µM.
`Cc1cccc(NC(=O)Cn2c(=O)n(Cc3ccc(F)cc3)c(=O)c3sccc32)c1` gave an IC50 of 7 µM.
